Calls of active or inactive are those of the source.

The text below walks through data of ChEMBL document CHEMBL6153170 (J Med Chem, 2025).

The target of one data set is T1, Histone deacetylase 8 (Homo sapiens, UniProt Q9BY41).
T1 sequence (Q9BY41 whole entry): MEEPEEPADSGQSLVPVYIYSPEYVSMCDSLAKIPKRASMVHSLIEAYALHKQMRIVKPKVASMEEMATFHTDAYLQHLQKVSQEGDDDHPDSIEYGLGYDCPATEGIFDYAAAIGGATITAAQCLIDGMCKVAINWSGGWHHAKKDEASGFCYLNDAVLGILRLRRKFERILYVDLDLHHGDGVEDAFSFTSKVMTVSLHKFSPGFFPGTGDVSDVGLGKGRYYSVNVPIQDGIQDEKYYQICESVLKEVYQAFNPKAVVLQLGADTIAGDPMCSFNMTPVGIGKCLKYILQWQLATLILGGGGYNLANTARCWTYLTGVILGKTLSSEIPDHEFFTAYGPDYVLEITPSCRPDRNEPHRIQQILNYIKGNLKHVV
In words: Inhibition of C-terminal His-tagged recombinant full length human HDAC8 extracted from baculovirus infected Sf9 insect cells preincubated for 5 mins followed by substrate addition and measured after 30 mins by fluorescence microplate reader analysis.

Data set [1] addresses T2, Protein deacetylase HDAC6 (Mus musculus) (UniProt Q9Z2V5).
T2 sequence (whole entry): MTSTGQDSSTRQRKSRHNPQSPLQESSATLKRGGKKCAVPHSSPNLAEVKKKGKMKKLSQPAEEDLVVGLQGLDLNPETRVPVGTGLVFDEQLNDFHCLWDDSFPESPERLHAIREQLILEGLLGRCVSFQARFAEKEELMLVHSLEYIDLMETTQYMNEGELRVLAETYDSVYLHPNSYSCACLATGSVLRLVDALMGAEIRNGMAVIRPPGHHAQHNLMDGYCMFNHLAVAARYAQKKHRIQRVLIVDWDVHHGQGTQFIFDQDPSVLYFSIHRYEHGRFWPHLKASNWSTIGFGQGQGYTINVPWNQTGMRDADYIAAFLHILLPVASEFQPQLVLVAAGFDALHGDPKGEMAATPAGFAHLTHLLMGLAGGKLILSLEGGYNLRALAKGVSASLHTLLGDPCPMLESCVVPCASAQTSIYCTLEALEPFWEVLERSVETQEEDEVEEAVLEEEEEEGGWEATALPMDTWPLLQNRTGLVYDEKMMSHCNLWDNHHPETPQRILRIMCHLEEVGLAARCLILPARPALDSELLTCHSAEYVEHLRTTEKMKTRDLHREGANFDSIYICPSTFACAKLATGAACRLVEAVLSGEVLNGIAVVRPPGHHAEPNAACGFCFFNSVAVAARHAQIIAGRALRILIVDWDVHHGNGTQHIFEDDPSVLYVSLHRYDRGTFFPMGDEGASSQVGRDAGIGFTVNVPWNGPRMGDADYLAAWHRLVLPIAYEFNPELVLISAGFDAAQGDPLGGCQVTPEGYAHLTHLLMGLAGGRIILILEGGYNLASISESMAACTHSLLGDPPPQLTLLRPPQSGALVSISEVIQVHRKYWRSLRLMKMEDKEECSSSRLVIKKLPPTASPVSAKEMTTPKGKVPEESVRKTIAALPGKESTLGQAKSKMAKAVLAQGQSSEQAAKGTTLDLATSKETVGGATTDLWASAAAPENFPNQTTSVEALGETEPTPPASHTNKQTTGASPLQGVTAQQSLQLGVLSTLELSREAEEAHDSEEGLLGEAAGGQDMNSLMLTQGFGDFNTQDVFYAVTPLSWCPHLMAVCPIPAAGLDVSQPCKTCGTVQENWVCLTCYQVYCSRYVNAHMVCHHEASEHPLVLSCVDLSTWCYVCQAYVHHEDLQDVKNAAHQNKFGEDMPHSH
The data set can be described thus: Inhibition of HDAC6 in mouse B16-F10 cells assessed as increase in acetylated alpha-tubulin level incubated for 12 hrs by Western blot analysis. The format is cell-based. The following applies: dose 0.1-2 µM. On the technique in general: In western blotting, separated proteins are transferred to a membrane and probed.

Data set [2] has as its system B16-F10. In words: Effect on Histone H3 protein level in mouse B16-F10 cells at 0.1 to 2 uM incubated for 12 hrs by Western blot analysis. The format is functional, cell-based. Particulars: dose 0.1-2 µM.
In data set [3] the test system is B16-F10. In words: Effect on acetylated histone H3 protein level in mouse B16-F10 cells at 0.1 to 2 uM incubated for 12 hrs by Western blot analysis. The following applies: dose 0.1-2 µM. The format is functional, cell-based.
A short description of data set [4]: MRT (0 to infinity) in male Sprague-Dawley rat at 2 mg/kg, iv measured after 48 hrs by triple quadrupole mass spectrometric analysis. The following applies: in vivo. The class given is ADME, organism-based.
The nature of data set [5]: Cmax in male Sprague-Dawley rat at 2 mg/kg, iv measured after 48 hrs by triple quadrupole mass spectrometric analysis. The class given is ADME, organism-based. The following applies: in vivo.
The nature of data set [6]: Half-life in male Sprague-Dawley rat at 10 mg/kg, po measured after 48 hrs by triple quadrupole mass spectrometric analysis. The class given is ADME, organism-based. The following applies: in vivo.
Data set [7] is described as follows: Tmax in male Sprague-Dawley rat at 10 mg/kg, po measured after 48 hrs by triple quadrupole mass spectrometric analysis. The following applies: in vivo. The class given is ADME, organism-based.
For data set [8], the system named is B16-F10. The data set can be described thus: Antitumor activity against mouse B16-F10 cells implanted in C57BL/6 mouse model assessed as reduction in tumor volume at 20 mg/kg/day, ip administered for 14 days. The format is functional, organism-based. Particulars: time 14.0 day.
Data set [9] relates to B16-F10. The data set can be described thus: Antitumor activity against mouse B16-F10 cells implanted in C57BL/6 mouse model assessed as reduction in tumor weight at 20 mg/kg/day, ip administered for 14 days. The format is functional, organism-based. The following applies: time 14.0 day.
Data set [10] can be described thus: Toxicity in C57BL/6 mouse model implanted with mouse B16-F10 cells assessed as morphological changes in kidney at 20 mg/kg/day, ip administered for 14 days by H and E staining based analysis. The format is organism-based. The following applies: in vivo, 336 h, time 14 day.
The nature of data set [11]: Toxicity in C57 mouse assessed as myelosuppression by measuring platelet level at 20 mg/kg/day, IG administered for 14 days by heat map analysis. The format is organism-based. Particulars: in vivo, po, 336 h, time 14 day.
Data set [12] is described as follows: Toxicity in C57 mouse assessed as change in ALB level at 20 mg/kg/day, IG administered for 14 days by heat map analysis. The class given is organism-based. Particulars: in vivo, po, 336 h, time 14 day.
Data set [13] can be described thus: Toxicity in C57 mouse assessed as change in AST level at 20 mg/kg/day, IG administered for 14 days by heat map analysis. The format is organism-based. Particulars: in vivo, po, 336 h, time 14 day.
Data set [14] can be described thus: Toxicity in C57 mouse assessed as change in TBIL level at 20 mg/kg/day, IG administered for 14 days by heat map analysis. The class given is organism-based. The following applies: in vivo, po, 336 h, time 14 day.
Another data set deals with HepG2. The data set can be described thus: cells. Particulars: Homo sapiens, HepG2, 48 h.

What is called IC50 is the concentration that inhibits the measured activity by half. One may read the MRT inf as the average time that molecules of a dose stay in the body. What is called Cmax is the highest concentration seen after dosing. The half-life is the time needed for the level to fall by half in the phase considered. A low value points to fast loss. The Tmax is the time at which the peak concentration occurs. As for `COc1nc(-c2cccc(-c3ccccc3)c2C)ccc1CNCCCCCCC(=O)NO`, the IC50 is above 10 µM at Histone deacetylase 8 and 3.4 µM with HepG2. In data set [1], the inhibition entry is “Dose-dependent-effect”. For the same molecule, in the data set on B16-F10 [2], the outcome was inactive. In addition, the Activity result is given as “Active; Negligible Effect Observed” with B16-F10 [3]; “Non-toxic” in data set [10]; “Non-toxic” in data set [11]; “Non-toxic” in data set [12]; “Non-toxic” in [13]; “Non-toxic” in data set [14]. In data set [4], this molecule gave an MRT inf of 7.12 h. In data set [5], this molecule came in with a Cmax of 638 ng/mL. For the same molecule, the half-life in data set [6] was 13.2 h. Further, the Tmax in data set [7] was 5.55 h. Moreover, the outcome in the data set on B16-F10 [8] and in the data set on B16-F10 [9] was Active.
